This is an account of results in the supplement of paper PMC10307832.

Common to all, as to assay: relative viability (nuclei count vs DMSO), 5 days (fraction); higher = more cells survive
Compound in the assay “Doxorubicin + Pictilisib”: COc1cccc2c1C(=O)c1c(O)c3c(c(O)c1C2=O)C[C@@](O)(C(=O)CO)C[C@@H]3O[C@H]1C[C@H](N)[C@H](O)[C@H](C)O1 [Doxorubicin] + CS(=O)(=O)N1CCN(Cc2cc3nc(-c4cccc5[nH]ncc45)nc(N4CCOCC4)c3s2)CC1 [Pictilisib] (partner 1 µM)
Summed up: (§1)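 The day after seeding in 1536-well plates, lung cancer cell lines were treated by pin tool with a single drug, or with a fixed anchor-drug dose together with five library-drug doses (not always all listed) in √10 steps. After 5 days, a combined fix-and-stain solution (final 0.05% Triton X-100, 1% formaldehyde, 1 ug/ml Hoechst) was added. Nuclei counted on 4× images gave relative viability as treated counts over vehicle counts, reported as the median of duplicate plates.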

Compound in the assay “Doxorubicin + Pemetrexed”: COc1cccc2c1C(=O)c1c(O)c3c(c(O)c1C2=O)C[C@@](O)(C(=O)CO)C[C@@H]3O[C@H]1C[C@H](N)[C@H](O)[C@H](C)O1 [Doxorubicin] + Nc1nc2[nH]cc(CCc3ccc(C(=O)N[C@@H](CCC(=O)O)C(=O)O)cc3)c2c(=O)[nH]1 [Pemetrexed] (partner 0.2 µM)
The essentials: as §1

Compound in the assay “BAY61-3606 + Lapatinib”: COC1=C(C=C(C=C1)C2=CC3=NC=CN3C(=N2)NC4=C(C=CC=N4)C(=O)N)OC [BAY61-3606] + CS(=O)(=O)CCNCc1ccc(-c2ccc3ncnc(Nc4ccc(OCc5cccc(F)c5)c(Cl)c4)c3c2)o1 [Lapatinib] (partner 2 µM)
The essentials: as §1

Compound in the assay “Doxorubicin + Navitoclax”: COc1cccc2c1C(=O)c1c(O)c3c(c(O)c1C2=O)C[C@@](O)(C(=O)CO)C[C@@H]3O[C@H]1C[C@H](N)[C@H](O)[C@H](C)O1 [Doxorubicin] + CC1(C)CCC(c2ccc(Cl)cc2)=C(CN2CCN(c3ccc(C(=O)NS(=O)(=O)c4ccc(N[C@H](CCN5CCOCC5)CSc5ccccc5)c(S(=O)(=O)C(F)(F)F)c4)cc3)CC2)C1 [Navitoclax] (partner 0.5 µM)
The essentials:
as §1

With UMC-11, the relative viability with Doxorubicin + Pictilisib (first compound 0.001 µM) was 0.849; in the assay with Doxorubicin + Pictilisib (first compound 0.003162 µM) it was 0.927; in the assay with Doxorubicin + Pictilisib (first compound 0.01 µM) it was 0.769; in the assay with Doxorubicin + Pictilisib (first compound 0.03162 µM), 0.445; in the assay with Doxorubicin + Pictilisib (first compound 0.1 µM), 0.369; with Doxorubicin + Pemetrexed (first compound 0.001 µM), 0.831. Besides, the relative viability was 0.901 in the assay with Doxorubicin + Pemetrexed (first compound 0.003162 µM); 0.823 with Doxorubicin + Pemetrexed (first compound 0.01 µM); 0.645 with Doxorubicin + Pemetrexed (first compound 0.03162 µM); 0.636 with Doxorubicin + Pemetrexed (first compound 0.1 µM); 1.16 with BAY61-3606 + Lapatinib (first compound 0.02 µM); 0.944 with BAY61-3606 + Lapatinib (first compound 0.06325 µM). For the same cell line, the relative viability worked out at 0.832 with BAY61-3606 + Lapatinib (first compound 0.2 µM); 1.1 with BAY61-3606 + Lapatinib (first compound 0.6325 µM); 0.958 with BAY61-3606 + Lapatinib (first compound 2 µM); 0.414 with Doxorubicin + Navitoclax (first compound 0.001 µM); 0.306 with Doxorubicin + Navitoclax (first compound 0.003162 µM); 0.323 with Doxorubicin + Navitoclax (first compound 0.01 µM). Besides, the relative viability was 0.229 with Doxorubicin + Navitoclax (first compound 0.03162 µM) and 0.366 in the assay with Doxorubicin + Navitoclax (first compound 0.1 µM).
